Converted amounts (≈) assume the structure as drawn. Structures can show the parent of a compound that is named as a salt. Where two headings read alike, the source gives them in different places.
Legend:
[1] = test system: Rabbit - PRP (ADP- and collagen-induced platelet aggregation); test: Aggregometry - Rabbit - PRP, In Vitro; format: cell-based; details: Oryctolagus cuniculus
From the text: (§1) As stated above, the compound of Formula I is a known blood platelet antiaggregative agent. Table I compares the activities of the compound of Formula I and other known blood platelet antiaggregative agents in various antiaggregative and antithrombosis tests. Although the compounds of Formula III are primarily intended as intermediates in the preparation of the compound of Formula I, they themselves have blood platelet antiaggregative properties. For comparison purposes, one of the compounds of Formula III (R^1 = ethyl, X = bromo) is included in Table I. The tests referred to in Table I were conducted as set out in detail in J. S. Fleming, et al., Journal of Pharmacology and Experimental Therapeutics, 194, 435 (1975).
(§2) Antiaggregative and Antithrombosis Tests in Various In Vitro, Ex Vivo
(§3) Aggregometry - Rabbit - PRP
(§4) (μg/ml) (mg/kp ip) Biolaser
(§5) PRP = Platelet-rich plasma
(§6) ADP = Adenosine diphosphate

[2] = test system: Rabbit - PRP (ADP- and collagen-induced platelet aggregation); test: Aggregometry - Rabbit - PRP, Ex Vivo; format: in vivo; details: Oryctolagus cuniculus, ip
From the text: as §1, §2, §3, §4, §5, §6

Biolaser Thrombosis = test: In Vivo Animal Model: Rabbit Biolaser Thrombosis; details: Oryctolagus cuniculus, read-out: ED50, Rabbit Biolaser Thrombosis
Electrical Thrombosis = test: In Vivo Animal Model: Dog Electrical Thrombosis; details: Canis lupus familiaris, read-out: ED50, Dog Electrical Thrombosis
Endotoxin Shock = test: In Vivo Animal Model: Rat Endotoxin Shock; details: po
From the text: as §1
In Vivo Animal Models ED50's (mg/kg)

[3] = ADP, read-out: In Vitro EC50, ADP
[4] = Collagen, read-out: In Vitro EC50, Collagen
[5] = ADP, read-out: Ex Vivo ED50, ADP
[6] = Collagen, read-out: Ex Vivo ED50, Collagen

Row | SMILES | EC50 [1, 3] [µg/mL] | EC50 [1, 4] [µg/mL] | ED50 [2, 5] [mg/kg] | ED50 [2, 6] [mg/kg] | ED50 (Biolaser Thrombosis; rabbit, po) [mg/kg] | ED50 (Electrical Thrombosis; dog, po) [mg/kg] | ED50 (Endotoxin Shock) [mg/kg] | ED50 (Biolaser Thrombosis; rabbit, iv) [mg/kg] | ED50 (Electrical Thrombosis; dog, ip) [mg/kg] | ED50 (Biolaser Thrombosis; iv) [mg/kg] | ED50 (Electrical Thrombosis; po) [mg/kg]
1 | CCOC(=O)CN1Cc2c(ccc(Cl)c2Cl)NC1=N [Compound III, Ethyl 5,6-Dichloro-3,4-dihydro-2(1H)-iminoquinazoline-3-acetate Hydrobromide] | 9 | 3.6 |  |  |  |  |  |  |  |  | 
2 | O=C1CN2Cc3c(ccc(Cl)c3Cl)N=C2N1 [Compound I, 6,7-dichloro-1,5-dihydroimidazo[2,1-b]quinazolin-2(3H)-one] | 0.3 (≈ 1.17 µM) | 0.08 (≈ 0.312 µM) | 1.25 | 1 | 2.5 | 1.5 | 25 |  |  |  | 
3 | O=C1C(CC[S+]([O-])c2ccccc2)C(=O)N(c2ccccc2)N1c1ccccc1 (centres unmarked) [Sulfinpyrazone] | > 512 | 62 (≈ 153 µM) | > 100 | 3 |  | > 100 | > 128 | > 60 |  |  | 
4 | OCCN(CCO)c1nc(N2CCCCC2)c2nc(N(CCO)CCO)nc(N3CCCCC3)c2n1 [Dipyridamole] | > 512 |  | > 100 | > 100 |  |  | > 256 | > 60 | > 35 |  | 
5 | CC(=O)Oc1ccccc1C(=O)O [Aspirin] | > 512 | 7 (≈ 38.9 µM) | > 100 | 3 |  |  | > 256 |  |  | > 60 | 50

From patent US4146718A, “Alkyl 5,6-dichloro-3,4-dihydro-2(1H)-iminoquinazoline-3-acetate hydrohalides” (Bristol-Myers Company, priority 1978, dated 1979)
